Earlier results, collected in patent EP4437048B1, “ENERGY CURABLE INK, COATING AND PRIMER COMPOSITIONS CONTAINING HIGHLY ALKOXYLATED GLYCEROL ACRYLATES FOR RETORT PACKAGING APPLICATIONS” (Sun Chemical B.V., priority 2022, dated 2024).

Settings: specific migration limit of the acrylate (Table 7)

SMILES: C=CC(=O)OCC(CC)(COCC(CC)(COC(=O)C=C)COC(=O)C=C)COC(=O)C=C [Di-TMPTA]
- SML: 10 ppb
